Converted amounts (≈) assume the structure as drawn.
Tests used:
[1] = Solubility test (equilibrium solubility in deionized water, HPLC); format: physicochemical; conditions: thermodynamic from solid, 37° C.
Description: Series solutions of 1 nM/10 nM/100 nM/100 nM/1 uM/10 uM/100 uM/1 mM were prepared according to following steps: WG compounds to be tested in the present application and corresponding compounds of structure A were respectively weighed, dissolved in deionized water, and oscillated at 37° C. for 12 hours to reach dissolution equilibrium. The resulted solutions were filtered 3 times with a filter membrane, and filtrates were collected. Actual concentrations of the compounds in the solutions were determined with HPLC. A curve of actual concentration of the solution—planned concentration of the solution was drawn, and the turning point of the curve indicated the equilibrium concentration of the compounds.

[2] = tested on: Liver cancer cells (HUH-7); experiment: Transmembrane test; format: in vitro ADME; conditions: HUH-7, 24 hours, arithmetic mean over concentrations
Description: (§1) Liver cancer cells (HUH-7) were seeded in a 6-well plate at a concentration of 4*10^5 cells/mL, 2 mL per well, and cultured overnight until the cells were adherent to the wall.
The next day, compound solutions were prepared as follows: WG compounds of present application and corresponding compounds of structure A were respectively weighed, prepared with pure DMSO into mother solutions of high concentration, then gradiently diluted to obtain compound solutions of 10 uM/30 uM/100 uM/150 uM/300 uM in 10% DMSO, and shaken to mix well.
When the cells were adherent to the wall under microscope observation, 200 uL of compound solutions were added to each well with a ratio of compound solution to culture medium at 1:10.
After culture for 24 hours, the culture medium was sucked out with a pipette, and the wells were then washed five times with phosphate buffer, 2 mL each time for 30 seconds, to ensure there were no compound residues in the environment of the cells. Solutions in the wells were thoroughly sucked up, and 150 uL RIPA Lysis Buffer was added into each well. Then the culture was continued on ice for 30 min to lyse the cells. Lysates were collected and centrifuged at […] for 1 h, and supernatants were collected and characterized with HPLC to determine the concentration of the compounds therein.
The solubility and changes of transmembrane efficiency of WG compounds relative to corresponding compounds of structure A were analyzed and calculated. An arithmetic mean value of transmembrane efficiency changes under different concentrations was calculated, thereby obtaining a reference value of the difference of transmembrane efficiency between two groups of compounds.

[3] = tested on: Liver cancer cells (HUH-7); experiment: Cell growth inhibition test (cck-8); format: cell-based; conditions: HUH-7, 72 hours
Description: Liver cancer cells (HUH-7) were seeded in a 96-well plate at a concentration of 2*10^4 cells/mL, 100 uL per well, and cultured overnight.
The next day, the cells were observed microscope to ensure adherence. Compound solutions were prepared as follows: WG compounds of present application and corresponding compounds of structure A were respectively weighed, prepared with pure DMSO into mother solutions of high concentration, then gradiently diluted to obtain compound solutions of 10 nM/100 nM/300 nM/1000 nM/3000 nM in 10% DMSO, and shaken to mix well.
Positive drug solutions in the control group were prepared with the same solvent and method, and only a single dosage was required. In this test, the positive drug solution is 1 uM lenvatinib.
After solution preparation was completed, 10 uL of compound solutions were added into each well of the 96-well plate, three duplicates for each dosage. The plate was gently shaken to allow the cells to repeatedly contact with the compound solutions, and then the plate was placed in an incubator to culture for 72 hours. 72 hours later, the plate was taken out and 10 uL cck-8 reagent was added into each well and shaken gently to mix well. Then the plate was placed in an incubator to culture for two hours. Two hours later, the plate was taken out and analyzed with a microplate reader to measure the absorbance of each well at a wavelength of 450 nm.
A graph can be drawn according to the gradient of concentrations, and the results can be compared directly.

[4] = tested on: target protein in liver cancer cells (HUH-7); experiment: Proteolysis test (Western blot of target protein); format: cell-based; design: key to Protein content (blackness of experimental group / blank control group): blot blackness of treated / blank control (fraction of control); conditions: HUH-7, 24 hours
Description: as §1
The next day, compound solutions were prepared as follows: WG compounds of present application and corresponding compounds of structure A were respectively weighed, prepared with pure DMSO into mother solutions of high concentration, then gradiently diluted to obtain compound solutions of 10 nM/30 nM/100 nM/300 nM/1000 nM/3000 nM in 10% DMSO, and shaken to mix well. 200 uL of compound solutions were added to each well with a ratio of compound solution to culture medium at 1:10.
After culture for 24 hours, the culture medium was sucked out with a pipette, and then the wells were washed 3 times with PBS. Solutions in the wells were thoroughly sucked up, and 150 uL RIPA Lysis Buffer was added into each well. Then the culture was continued on ice for 30 min to lyse the cells.
Lysates were collected and centrifuged at 16000 rpm for 10 minutes. Supernatants were collected and the total protein content was normalized with a BCA kit to determine target protein contents with Western blot.
The results were analyzed with ImageJ. Blackness of each strip was measured and the protein was quantified for comparison analysis according to formula: Protein content=blackness value of the experimental group/blackness value of the blank control group.

COc1cc2nccc(Oc3ccc(NC(=O)NC4CC4)c(Cl)c3)c2cc1C(=O)NCCCCCCC(=O)N[C@H](C(=O)N1C[C@H](OP(=O)(O)OCCCCCCCCCC(=O)NC(COCCC(=O)NCCCNC(=O)CCCCOC2OC(CO)C(O)C(O)C2NC(C)=O)(COCCC(=O)NCCCNC(=O)CCCCOC2OC(CO)C(O)C(O)C2NC(C)=O)COCCC(=O)NCCCNC(=O)CCCCOC2OC(CO)C(O)C(O)C2NC(C)=O)C[C@H]1C(=O)NCc1ccc(-c2scnc2C)cc1)C(C)(C)C (some centres unmarked) [WG-1 (00300639)]
solubility thermodynamic at 12 h [1]: 677 µM (≈ 1770 µg/mL)
Transmembrane efficiency relative to corresponding compound of structure A (WGint4) [2]: about 9.2 times
IC50 [3]: 0.0213 µM
DC50 [4]: 0.018 µM
Protein content (blackness of experimental group / blank control group) ([4]; dosage 1 nM): 0.93
Protein content (blackness of experimental group / blank control group) ([4]; dosage 10 nM): 0.72
Protein content (blackness of experimental group / blank control group) ([4]; dosage 30 nM): 0.31
Protein content (blackness of experimental group / blank control group) ([4]; dosage 100 nM): 0.16
Protein content (blackness of experimental group / blank control group) ([4]; dosage 300 nM): 0.13

COc1cc2nccc(Oc3ccc(NC(=O)NC4CC4)c(Cl)c3)c2cc1C(=O)NCCCCCCC(=O)N[C@H](C(=O)N1C[C@H](OP(=O)(O)OCCCCCCCCCC(=O)NC(CNC(=O)CCCCCCOC2OC(CO)C(O)C(O)C2NC(C)=O)CNC(=O)CCCCCCOC2OC(CO)C(O)C(O)C2NC(C)=O)C[C@H]1C(=O)NCc1ccc(-c2scnc2C)cc1)C(C)(C)C (some centres unmarked) [WG-2(00300629)]
solubility thermodynamic at 12 h [1]: 603 µM (≈ 1180 µg/mL)
Transmembrane efficiency relative to corresponding compound of structure A (WGint4) [2]: WG-2 is about 8.3 times
IC50 [3]: 0.0295 µM
DC50 [4]: 0.0214 µM

CC(=O)N[C@H]1[C@H](OCCCCC(=O)NCCCNC(=O)CCOCC(COCCC(=O)NCCCNC(=O)CCCCO[C@@H]2O[C@H](CO)[C@H](O)[C@H](O)[C@H]2NC(C)=O)(COCCC(=O)NCCCNC(=O)CCCCO[C@@H]2O[C@H](CO)[C@H](O)[C@H](O)[C@H]2NC(C)=O)NC(=O)CCCCCCCCCOP(=O)(O)O[C@@H]2C[C@@H](C(=O)NCc3ccc(-c4scnc4C)cc3)N(C(=O)[C@@H](NC(=O)COCCOCCN(C)C(=O)c3cc(Oc4ccc(NC(=O)Nc5ccc(Cl)c(C(F)(F)F)c5)cc4)ccn3)C(C)(C)C)C2)O[C@H](CO)[C@H](O)[C@@H]1O [WG-3(00400639)]
solubility thermodynamic ([1]; 12 hours): 255 µM (≈ 681 µg/mL)
Transmembrane efficiency relative to corresponding compound of structure A (WGint4) [2]: WG-3 is about 15 times
IC50 [3]: 0.0799 µM
DC50 [4]: 0.0814 µM

COc1cc2c(Oc3ccc(NC(=O)C4(C(=O)Nc5ccc(F)cc5)CC4)cc3)ccnc2cc1OCCCOCCCOCCC(=O)N[C@H](C(=O)N1C[C@H](OP(=O)(O)OCCCCCCCCCC(=O)NC(COCCC(=O)NCCCNC(=O)CCCCOC2OC(CO)C(O)C(O)C2NC(C)=O)(COCCC(=O)NCCCNC(=O)CCCCOC2OC(CO)C(O)C(O)C2NC(C)=O)COCCC(=O)NCCCNC(=O)CCCCOC2OC(CO)C(O)C(O)C2NC(C)=O)C[C@H]1C(=O)NCc1ccc(-c2scnc2C)cc1)C(C)(C)C (some centres unmarked) [WG-4(00500639)]
solubility thermodynamic at 12 h [1]: 476 µM (≈ 1300 µg/mL)
Transmembrane efficiency relative to corresponding compound of structure A (WGint4) [2]: WG-4 is about 17.1 times

COc1cc2c(Oc3ccc(NC(=O)C4(C(=O)Nc5ccc(F)cc5)CC4)cc3F)ccnc2cc1OCCCOCCCOCCC(=O)N[C@H](C(=O)N1C[C@H](OP(=O)(O)OCCCCCCCCCC(=O)NC(COCCC(=O)NCCCNC(=O)CCCCOC2OC(CO)C(O)C(O)C2NC(C)=O)(COCCC(=O)NCCCNC(=O)CCCCOC2OC(CO)C(O)C(O)C2NC(C)=O)COCCC(=O)NCCCNC(=O)CCCCOC2OC(CO)C(O)C(O)C2NC(C)=O)C[C@H]1C(=O)NCc1ccc(-c2scnc2C)cc1)C(C)(C)C (some centres unmarked) [WG-5(00600639)]
solubility thermodynamic at 12 h [1]: 731 µM (≈ 2010 µg/mL)
Transmembrane efficiency relative to corresponding compound of structure A (WGint4) [2]: WG-5 is about 11.5 times

COc1cc2nccc(Oc3ccc(NC(=O)NC4CC4)c(Cl)c3)c2cc1C(=O)NCCCCCCC(=O)N[C@H](C(=O)N1C[C@H](O)C[C@H]1C(=O)NCc1ccc(-c2scnc2C)cc1)C(C)(C)C [WGint4 (003006)]
solubility thermodynamic at 12 h [1]: 31 µM (≈ 30 µg/mL)
IC50 ([3]; Homo sapiens): 0.211 µM
DC50 [4]: 0.15 µM
Protein content (blackness of experimental group / blank control group) ([4]; dosage 1 nM): 0.97
Protein content (blackness of experimental group / blank control group) ([4]; dosage 10 nM): 0.97
Protein content (blackness of experimental group / blank control group) ([4]; dosage 30 nM): 0.84
Protein content (blackness of experimental group / blank control group) ([4]; dosage 100 nM): 0.65
Protein content (blackness of experimental group / blank control group) ([4]; dosage 300 nM): 0.22

— US12630579B2, “Proteolysis targeting compound with tissue targeting capability and use thereof” (TAI BI DI PHARMACEUTICAL TECHNOLOGY (SHIJIAZHUANG) CO. LTD, priority 2020, dated 2026)
